{"source": "paper PMC11536310", "about": "“Evaluation of STK17B as a cancer immunotherapy target utilizing highly potent and selective small molecule inhibitors” (Frontiers in Immunology, 2024)", "test_system": "phospho-myosin light chain 2 (pMLC2) S19", "assay": "pMLC2 flow cytometry assay in mouse whole blood in vitro", "assay_type": "cell-based", "conditions": "ROCK1/2 inhibitor added to top concentration (30 µM) of BLU4565"}
{"smiles": "CC1=C(C(=O)Nc2cc3cn[nH]c3cc2F)C(c2ccc(C(F)(F)F)cc2)CC(=O)N1", "note": "(stereo not shown) [GSK429286A]", "values": [{"measurement": "further reduction of pMLC2 median fluorescence intensity signal compared with BLU4565 alone", "value": "Minimal further reduction"}]}
